Data: patent US12679878B2, “CRF2 receptor agonists and their use in therapy” (SANOFI, priority 2020, dated 2026)
Where two headings read alike, the source gives them in different places. Starred links: 1 amine or outer side, 2 acyl side, 3 side chain; linkers in the order of their positions; H or OH if unused. Non-standard residues stand in square brackets, D forms with d. Residues, ends and D or L forms follow the SMILES beside them. Groups on a side chain read outwards from the residue. *: point of attachment. C20 diacid = O=C(O)CCCCCCCCCCCCCCCCCCC(=O)*; C18 diacid = O=C(O)CCCCCCCCCCCCCCCCC(=O)*; γGlu = O=C(O)[C@H](CCC(=O)[*:2])N[*:1]; AEEA = NCCOCCOCC(=O)O; Aib = CC(C)(N)C(=O)O

Legend:
[1] = Chemical stability, purity loss by UPLC-UV after 28 days at 40° C. vs 5° C., pH 4.5 acetate buffer (Example 12); assay type: physicochemical; settings: 28 days 40° C. vs 5° C.; pH 4.5, 20 mM acetate buffer; 300 μM
In short: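 300 μM compound (purity-corrected) in 20 mM acetate buffer, pH 4.5, stored 28 days at 5 and 40° C. Purity by UPLC-UV as compound peak area over total peak area. Value is the purity difference between 5° C. and 40° C. samples, relative to the 5° C. purity, in percent.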

[2] = target: T1, human CRF2α receptor (Homo sapiens, UniProt Q13324); experiment: cAMP agonism at human CRF2 α receptor in TeloHEAC cells (Example 7); assay type: cell-based; settings: cAMP HTRF, TeloHEAC cells stably expressing human CRF2 α
T1 construct: expressed in transfected cells; host or cells: TeloHEAC
T1 sequence (Q13324 1-411): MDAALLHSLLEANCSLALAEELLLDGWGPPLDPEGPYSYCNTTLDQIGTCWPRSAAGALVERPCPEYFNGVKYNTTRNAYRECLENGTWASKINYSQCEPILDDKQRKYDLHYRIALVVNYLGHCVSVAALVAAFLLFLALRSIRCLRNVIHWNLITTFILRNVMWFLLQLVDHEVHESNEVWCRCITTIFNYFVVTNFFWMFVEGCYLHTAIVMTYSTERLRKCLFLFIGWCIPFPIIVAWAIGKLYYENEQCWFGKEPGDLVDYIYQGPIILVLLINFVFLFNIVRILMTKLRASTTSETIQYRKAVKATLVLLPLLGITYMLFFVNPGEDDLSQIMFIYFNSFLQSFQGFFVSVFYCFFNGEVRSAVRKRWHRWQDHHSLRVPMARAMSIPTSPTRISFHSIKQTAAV
In short: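 Thawed frozen stably transfected cells in HBSS/20 mM HEPES (0% or 0.1% HSA) plus 2 mM IBMX were exposed to compound at 2000 cells/well for 30 min at room temperature. Intracellular cAMP was read by HTRF (665/620 nm ratio) after 1 h lysis; EC50 was derived with 1000 nM urocortin 2 set as 100%.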

[3] = Physical stability, dynamic light scattering assay (Example 15); assay type: physicochemical; settings: for Apparent Rh [nm] 4 weeks / Scattering Intensity (I) [%] 4 weeks: 4 weeks at 40° C.
In short: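 DLS at 837 nm, 150° angle, +25° C; Rh, scattering intensity and mass contribution measured at 0 weeks and after 4 weeks at 40° C. Rh and D compared at 1, 5 and 10 mg/ml as kD surrogate; separate measurements at 300 μM, purity-corrected.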

[4] = 0% HSA, read-out: EC50 [nM], 0% HSA
[5] = 0.1% HSA, read-out: EC50 [nM], 0.1% HSA
[6] = Buffer C (20 mM phosphate, pH 6.2)
[7] = Buffer A (100 mM acetate, pH 4.5)
[8] = Buffer D (20 mM phosphate, pH 7.4)

SMILES	Relative purity loss [%] [1]	EC50 [2, 4]	EC50 [2, 5]	Apparent Rh [nm] 0 weeks [3, 6]	Scattering Intensity (I) [%] 0 weeks [3, 6]	Apparent Rh [nm] 4 weeks [3, 6]	Scattering Intensity (I) [%] 4 weeks [3, 6]	Apparent Rh [nm] 0 weeks [3, 7]	Scattering Intensity (I) [%] 0 weeks [3, 7]	Apparent Rh [nm] 4 weeks [3, 7]	Scattering Intensity (I) [%] 4 weeks [3, 7]	Apparent Rh [nm] 0 weeks [3, 8]	Scattering Intensity (I) [%] 0 weeks [3, 8]	Apparent Rh [nm] 4 weeks [3, 8]	Scattering Intensity (I) [%] 4 weeks [3, 8]
CC[C@H](C)[C@H](N)C(=O)N[C@H](C(=O)N[C@@H](CC(C)C)C(=O)N[C@@H](CO)C(=O)N[C@@H](CC(C)C)C(=O)N[C@@H](CC(=O)O)C(=O)N[C@H](C(=O)N1CCC[C@H]1C(=O)N[C@H](C(=O)N[C@@H](CCCCN)C(=O)N[C@@H](CC(C)C)C(=O)N[C@@H](CCCCNC(=O)COCCOCCNC(=O)COCCOCCNC(=O)CC[C@H](NC(=O)CCCCCCCCCCCCCCCCC(=O)O)C(=O)O)C(=O)N[C@@H](CCCCN)C(=O)N[C@H](C(=O)N[C@@H](CC(C)C)C(=O)N[C@@H](CC(C)C)C(=O)N[C@@H](CCC(=O)O)C(=O)N[C@@H](CCC(N)=O)C(=O)N[C@@H](CCC(=O)O)C(=O)N[C@@H](CCCCN)C(=O)N[C@@H](CCC(N)=O)C(=O)N[C@@H](CCCCN)C(=O)N[C@@H](CCCCN)C(=O)N[C@@H](CCC(N)=O)C(=O)N[C@@H](CCCNC(=N)N)C(=O)N[C@@H](CCC(=O)O)C(=O)N[C@@H](CCC(N)=O)C(=O)N[C@@H](C)C(=O)N[C@@H](CCC(=O)O)C(=O)N[C@H](C(=O)N[C@@H](CC(N)=O)C(=O)N[C@@H](CCCCN)C(=O)N[C@@H](CCC(N)=O)C(=O)N[C@H](C(=O)N[C@@H](CC(C)C)C(=O)N[C@@H](C)C(=O)N[C@@H](CCC(N)=O)C(=O)N[C@H](C(N)=O)C(C)C)[C@@H](C)CC)[C@@H](C)O)[C@@H](C)CC)[C@@H](C)CC)C(C)C)C(C)C [compound 35] (H-IVLSLDVPIKLK([AEEA-AEEA-γGlu-C18 diacid])KILLEQEKQKKQREQAETNKQILAQV-NH2; N-terminus assumed)	4.45%	0.24 nM	3.82 nM	–	–	–	–	–	–	–	–	–	–	–	–
CC[C@H](C)[C@H](NC(=O)[C@H](CCC(N)=O)NC(=O)[C@H](CCC(=O)O)NC(=O)[C@H](CC(C)C)NC(=O)[C@H](CC(C)C)NC(=O)[C@H](CCC(N)=O)NC(=O)[C@H](CCCCN)NC(=O)[C@H](CC(N)=O)NC(=O)[C@H](CCCCN)NC(=O)[C@H](CCC(=O)O)NC(=O)[C@H](C)NC(=O)[C@H](CCC(N)=O)NC(=O)[C@H](CCC(N)=O)NC(=O)[C@H](CCCNC(=N)N)NC(=O)[C@H](CCC(=O)O)NC(=O)[C@H](CCCCN)NC(=O)[C@H](CCCCN)NC(=O)[C@H](CCC(N)=O)NC(=O)[C@H](CCCCN)NC(=O)[C@H](CCC(N)=O)NC(=O)[C@H](CCC(N)=O)NC(=O)[C@H](CCCCN)NC(=O)[C@H](CC(C)C)NC(=O)[C@H](CC(C)C)NC(=O)[C@@H](NC(=O)[C@H](CCC(N)=O)NC(=O)[C@H](CCCCNC(=O)COCCOCCNC(=O)COCCOCCNC(=O)CC[C@H](NC(=O)CCCCCCCCCCCCCCCCCCC(=O)O)C(=O)O)NC(=O)[C@@H](NC(=O)[C@H](CCCCN)NC(=O)[C@@H](NC(=O)[C@@H]1CCCN1C(=O)[C@@H](NC(=O)[C@H](CC(=O)O)NC(=O)[C@H](CC(C)C)NC(=O)[C@H](CO)NC(=O)[C@H](CC(C)C)NC(=O)[C@@H](NC(=O)[C@@H](N)Cc1ccccc1)[C@@H](C)O)C(C)C)[C@@H](C)O)[C@@H](C)CC)[C@@H](C)CC)C(N)=O [compound 59] (H-FTLSLDVPTKIK([AEEA-AEEA-γGlu-C20 diacid])QILLKQQKQKKERQQAEKNKQLLEQI-NH2)	2.85%	0.15 nM	17.4 nM	3.66 ± 0.05 nm	100 ± 0%	3.75 ± 0.08 nm	100 ± 0%	–	–	–	–	–	–	–	–
CC[C@H](C)[C@H](N)C(=O)N[C@H](C(=O)N[C@@H](CC(C)C)C(=O)N[C@@H](CO)C(=O)N[C@@H](CC(C)C)C(=O)N[C@@H](CC(=O)O)C(=O)N[C@H](C(=O)N1CCC[C@H]1C(=O)N[C@H](C(=O)N[C@@H](CCCCN)C(=O)N[C@@H](CC(C)C)C(=O)N[C@@H](CCCCNC(=O)COCCOCCNC(=O)COCCOCCNC(=O)CC[C@H](NC(=O)CCCCCCCCCCCCCCCCC(=O)O)C(=O)O)C(=O)N[C@@H](CCCCN)C(=O)N[C@H](C(=O)N[C@@H](CC(C)C)C(=O)N[C@@H](CC(C)C)C(=O)N[C@@H](CCCCN)C(=O)N[C@@H](CCC(N)=O)C(=O)N[C@@H](CCC(=O)O)C(=O)N[C@@H](CCCNC(=N)N)C(=O)N[C@@H](CCC(N)=O)C(=O)N[C@@H](CCCCN)C(=O)N[C@@H](CCCCN)C(=O)NC(C)(C)C(=O)N[C@@H](CCCNC(=N)N)C(=O)N[C@@H](CCC(=O)O)C(=O)N[C@@H](CCC(N)=O)C(=O)N[C@@H](C)C(=O)N[C@@H](CCC(=O)O)C(=O)N[C@@H](CCCCN)C(=O)N[C@@H](CC(N)=O)C(=O)N[C@@H](CCCCN)C(=O)N[C@@H](CCC(N)=O)C(=O)N[C@H](C(=O)N[C@@H](CC(C)C)C(=O)N[C@@H](C)C(=O)N[C@@H](CCC(N)=O)C(=O)N[C@H](C(N)=O)C(C)C)[C@@H](C)CC)[C@@H](C)CC)[C@@H](C)CC)C(C)C)C(C)C [compound 99] (H-IVLSLDVPIKLK([AEEA-AEEA-γGlu-C18 diacid])KILLKQERQKK[Aib]REQAEKNKQILAQV-NH2)	–	0.06 nM	1.6 nM	–	–	–	–	3.32 ± 0.18 nm	100 ± 1%	3.42 ± 0.04 nm	99 ± 1%	–	–	–	–
CC[C@H](C)[C@H](N)C(=O)N[C@H](C(=O)N[C@@H](CC(C)C)C(=O)N[C@@H](CO)C(=O)N[C@@H](CC(C)C)C(=O)N[C@@H](CC(=O)O)C(=O)N[C@@H](C(=O)N1CCC[C@H]1C(=O)N[C@H](C(=O)N[C@@H](CCCCN)C(=O)N[C@@H](CC(C)C)C(=O)N[C@@H](CCCCNC(=O)COCCOCCNC(=O)COCCOCCNC(=O)CC[C@H](NC(=O)CCCCCCCCCCCCCCCCC(=O)O)C(=O)O)C(=O)N[C@@H](CCC(N)=O)C(=O)N[C@H](C(=O)N[C@@H](CC(C)C)C(=O)N[C@@H](CC(C)C)C(=O)N[C@@H](CCCCN)C(=O)N[C@@H](CCC(N)=O)C(=O)N[C@@H](CCC(=O)O)C(=O)N[C@@H](CCCNC(=N)N)C(=O)N[C@@H](CCC(N)=O)C(=O)N[C@@H](CCCCN)C(=O)NC(C)(C)C(=O)N[C@@H](CCC(N)=O)C(=O)N[C@@H](CCCNC(=N)N)C(=O)N[C@@H](CCC(N)=O)C(=O)N[C@@H](CCC(N)=O)C(=O)N[C@@H](C)C(=O)N[C@@H](CCC(=O)O)C(=O)N[C@@H](CCCCN)C(=O)N[C@@H](CC(N)=O)C(=O)N[C@@H](CCCCN)C(=O)N[C@@H](CCC(N)=O)C(=O)N[C@H](C(=O)N[C@@H](CC(C)C)C(=O)N[C@@H](C)C(=O)N[C@@H](CCC(N)=O)C(=O)N[C@H](C(N)=O)C(C)C)[C@@H](C)CC)[C@@H](C)CC)[C@@H](C)CC)C(C)C)C(C)C [compound 135] (H-IVLSLD[dV]PIKLK([AEEA-AEEA-γGlu-C18 diacid])QILLKQERQK[Aib]QRQQAEKNKQILAQV-NH2; N-terminus assumed)	3.55%	0.04 nM	1.48 nM	–	–	–	–	2.83 ± 0.12 nm	99 ± 1%	3.01 ± 0.03 nm	99 ± 1%	2.54 ± 0.16 nm	100 ± 0%	2.63 ± 0.15 nm	100 ± 0%
